Read-outs that look alike come from different tables or passages of the source.
Assays:
[1] = tested on: human lung cancer cell line A549; test: Tumor cell growth inhibition, SRB staining, A549; assay type: cell-based; conditions: A549, 72 h
Procedure: The growth inhibition assay of tumor cells was detected by sulforhodamine B (SRB) staining method. The specific steps were as follows: inoculating human colon cancer cell line HCT116 and human lung cancer cell line A549 (purchased from American Type Culture Collection, ATCC) at the logarithmic growth phase into a 96-well micro culture plate at an appropriate concentration of 4000 cells/well, 100 μL for each well; after culturing overnight, adding with the compound at different concentrations (100, 10, 1, 0.1, 0.01 μM) to react for 72 h, wherein triplicate wells were set up for each concentration, and solvent control wells with the corresponding concentration and zero wells without cells were also set up. After the completion of the reaction, the culture medium was removed from the adherent cells, the later was added with 10% (w/v) trichloroacetic acid (100 μL/well) at 4° C. to fix for 1 h, and then washed five times with distilled water. After drying at room temperature, 100 μL of SRB solution (4 mg/mL, dissolved in 1% glacial acetic acid) was added into each well, followed by incubation and staining for 15 min at room temperature. The uncombined SRB was removed by washing five times with 1% glacial acetic acid. After drying at room temperature, 100 μL of 10 mM Tris solution was added into each well, and the optical density (OD) at 515 nm was measured by a […] microplate reader. The inhibition rate of the drug to tumor cell growth was calculated according to the following equation: Inhibition rate (%)=(OD of control well-OD of drug well)/OD of control well×100%. The experiment was repeated twice.

[2] = target: HSP90α (Homo sapiens (Human), UniProt P07900); test: Fluorescence polarization (FP) HSP90-alpha target binding assay
From the text: In the present invention, the method of fluorescence polarization (FP) was used to establish the screening platform for HSP90-alpha inhibitors. The principle based on is to calculate fluorescence polarization values in horizontal and vertical directions by detecting molecular weight changes before and after interaction of fluorescent labeled small molecules with other molecules, in use for correlation analysis. If binding equilibria between the fluorescent labeled small molecule and the macromolecule is established, it moves slowly when excited, and the fluorescence polarization values measured will increase. If the fluorescent labeled small molecule binding to the macromolecule is replaced with other ligands, its rotational or inversional speed in free state will become faster, the emitted light would be depolarized with respect to the exciting light plane, and thus the polarized light value measured will decrease, so as to calculate the polarization value of the sample (the unit of polarization value is mP).
The fluorescent labeled small molecule used in the present invention was VER-00051001 (synthesized by reference to the synthetic method described in JMC, 2008, 51, 196-218). The reaction was carried out in a 384-well black plate, using the reaction hydrophobic protein HFB buffer: 100 mM Tris.Cl pH 7.4, 20 mM KCl, 6 mM MgCl2, 5 μg/mL BSA, 25 nM full-length Hsp90U, 10 nM VER-51001. The volume of the reaction system was […], containing 5 nM GM-BODIPY (geldanamycin), 30 nM HSP90 and the test small molecular compound or DMSO (dimethyl sulfoxide), wherein the DMSO content was 2% o. Additional two group wells were established, wherein the wells only added with HFB buffer were used as blank controls, and the wells further added with 5 nM GM-BODIPY were used as negative controls. The reaction was carried out at 4° C. for 12-16 hours. The mP value was measured by Biotek microplate reader at 485 nm of excitation wavelength and 535 nm of emission wavelength. The inhibition rate was calculated using the following equation: (Compound-free mP−Compound mP)/(Compound-free mP−negative control mP)×100%

[3] = fluorescence polarization, read-out: Target binding ability HSP90α FP IC50

Structure (SMILES) | EC50 [1] | IC50 [2] | IC50 [2, 3]
CCNC(=O)c1noc(-c2cc(C(C)C)c(O)cc2O)c1-c1ccc2c(c1)C1CCC2N1 (centres unmarked) [Example 4, 5-(2,4-dihydroxyl-5-isopropylphenyl)-N-ethyl-4-(1,2,3,4-tetrahydro-1,4-epiminonaphth-6-yl)isoxazole-3-carboxamide] | 20 to 100 nM | 20 to 100 nM | –
CCNC(=O)c1noc(-c2cc(C(C)C)c(O)cc2O)c1-c1ccc2c(c1)C1CCC2N1C (centres unmarked) [Example 5, 5-(2,4-dihydroxyl-5-isopropylphenyl)-N-ethyl-4-(9-methyl-1,2,3,4-tetrahydro-1,4-epiminonaphth-6-yl)isoxazole-3-carboxamide] | < 20 nM | 20 to 100 nM | –
CCNC(=O)c1noc(-c2cc(C(C)C)c(O)cc2O)c1-c1ccc2c(c1)C1CCC2N1CC (centres unmarked) [Example 6, 5-(2,4-dihydroxyl-5-isopropylphenyl)-N-ethyl-4-(9-ethyl-1,2,3,4-tetrahydro-1,4-epiminonaphth-6-yl)isoxazole-3-carboxamide] | < 20 nM | 20 to 100 nM | –
CCNC(=O)c1noc(-c2cc(C(C)C)c(O)cc2O)c1-c1ccc2c(c1)C1CCC2N1C(C)C (centres unmarked) [Example 7, 5-(2,4-dihydroxyl-5-isopropylphenyl)-N-ethyl-4-(9-isopropyl-1,2,3,4-tetrahydro-1,4-epiminonaphth-6-yl)isoxazole-3-carboxamide] | < 20 nM | 20 to 100 nM | –
CCNC(=O)c1noc(-c2cc(C(C)C)c(O)cc2O)c1-c1ccc2c(c1)C1CCC2N1CC(C)C (centres unmarked) [Example 8, 5-(2,4-dihydroxyl-5-isopropylphenyl)-N-ethyl-4-(9-isobutyl-1,2,3,4-tetrahydro-1,4-epiminonaphth-6-yl)isoxazole-3-carboxamide] | < 20 nM | 20 to 100 nM | –
CCNC(=O)c1noc(-c2cc(C(C)C)c(O)cc2O)c1-c1cc2c(s1)CCN(C)C2 [Example 9, 5-(2,4-dihydroxyl-5-isopropylphenyl)-N-ethyl-4-(5-methyl-4,5,6,7-tetrahydrothieno[3,2-c]pyridin-2-yl)isoxazole-3-carboxamide] | 20 to 100 nM | – | 20 to 100 nM
CCNC(=O)c1noc(-c2cc(C(C)C)c(O)cc2O)c1-c1nc2c(s1)CCN(C)C2 [Example 10, 5-(2,4-dihydroxyl-5-isopropyl-phenyl)-N-ethyl-4-(5-methyl-4,5,6,7-tetrahydrothiazolo[4,5-c]pyridin-2-yl)isoxazole-3-carboxamide] | 20 to 100 nM | – | 20 to 100 nM
CCNC(=O)c1noc(-c2cc(C(C)C)c(O)cc2O)c1-c1ccc2c(n1)CCN(C)C2 [Example 11, 5-(2,4-dihydroxyl-5-isopropylphenyl)-N-ethyl-4-(6-methyl-5,6,7,8-tetrahydro-1,6-naphthyridin-2-yl)isoxazole-3-carboxamide] | < 20 nM | – | 20 to 100 nM
CCNC(=O)c1onc(-c2cc(C(C)C)c(O)cc2O)c1-c1ccc2c(c1)CCN(C)C2 [Example 12, 3-(2,4-dihydroxyl-5-isopropylphenyl)-N-ethyl-4-(2-methyl-1,2,3,4-tetrahydroisoquinolin-6-yl)isoxazole-5-carboxamide] | < 20 nM | – | < 20 nM
Cc1nnc(-c2noc(-c3cc(C(C)C)c(O)cc3O)c2-c2ccc3c(c2)CCN(C)C3)[nH]1 [Example 15, 4-isopropyl-6-[4-(2-methyl-1,2,3,4-tetrahydroisoquinolin-6-yl)-3-(5-methyl-4H-1,2,4-triazol-3-yl)isoxazol-5-yl]benzene-1,3-diol] | > 100 nM | – | 20 to 100 nM
CCc1cnc(-c2noc(-c3cc(C(C)C)c(O)cc3O)c2-c2ccc3c(c2)CCN(C)C3)[nH]1 [Example 16, 4-(3-(5-ethyl-1H-imidazol-2-yl)-4-(2-methyl-1,2,3,4-tetrahydroisoquinolin-6-yl)isoxazol-5-yl)-6-isopropylbenzene-1,3-diol] | < 20 nM | – | 20 to 100 nM
CCc1cnc(-c2noc(-c3cc(C(C)C)c(O)cc3O)c2-c2ccc3c(c2)CCN(CCO)C3)[nH]1 [Example 17, 4-(3-(5-ethyl-1H-imidazol-2-yl)-4-(2-(2-hydroxyethyl)-1,2,3,4-tetrahydroisoquinolin-6-yl)isoxazol-5-yl)-6-isopropylbenzene-1,3-diol] | 20 to 100 nM | – | 20 to 100 nM
CCNC(=O)c1noc(-c2cc(C(C)C)c(O)cc2O)c1-c1cc2c(s1)C(C)(C)NCC2 [Example 18, 5-(2,4-dihydroxyl-5-isopropylphenyl)-4-(7,7-dimethyl-4,5,6,7-tetrahydrothieno[2,3-c]pyridin-2-yl)-N-ethyl-isoxazole-3-carboxamide] | 20 to 100 nM | – | < 20 nM
CCNC(=O)c1noc(-c2cc(C(C)C)c(O)cc2O)c1-c1cnc2c(c1)CN(C)CC2 [Example 19, 5-(2,4-dihydroxyl-5-isopropylphenyl)-N-ethyl-4-(6-methyl-5,6,7,8-tetrahydro-1,6-naphthyridin-3-yl)isoxazole-3-carboxamide] | > 100 nM | – | 20 to 100 nM
CC(C)c1cc(-c2onc(C(O)C(F)(F)F)c2-c2ccc3c(c2)CCN(C)C3)c(O)cc1O (centres unmarked) [Example 20, 4-isopropyl-6-(4-(2-methyl-1,2,3,4-tetrahydroisoquinolin-6-yl)-3-(2,2,2-trifluoro-1-hydroxyethyl)isoxazol-5-yl)benzene-1,3-diol] | > 100 nM | – | 20 to 100 nM
CC(C)c1cc(-c2onc(C(=N)NC#N)c2-c2ccc3c(c2)CCN(C)C3)c(O)cc1O [Example 21, N-cyano-5-(2,4-dihydroxyl-5-isopropylphenyl)-4-(2-methyl-1,2,3,4-tetrahydroisoquinolin-6-yl)isoxazole-3-carboxamidine] | > 100 nM | – | < 20 nM
CCNC(=O)c1noc(-c2cc(C(C)C)c(O)cc2O)c1-c1cc2c(s1)CCN(C)CC2 [Example 22, 5-(2,4-dihydroxyl-5-isopropylphenyl)-N-ethyl-4-(6-methyl-5,6,7,8-tetrahydro-4H-thieno[2,3-d]azepin-2-yl) isoxazole-3-carboxamide] | 20 to 100 nM | – | < 20 nM
CCNC(=O)c1noc(-c2cc(C(C)C)c(O)cc2O)c1-c1cc2n(c1)CCN(C)C2 [Example 23, 5-(2,4-dihydroxyl-5-isopropylphenyl)-N-ethyl-4-(2-methyl-1,2,3,4-tetrahydropyrrolo[1,2-a]pyrazin-7-yl)isoxazole-3-carboxamide] | 20 to 100 nM | – | < 20 nM
CCNC(=O)c1noc(-c2cc(C(C)C)c(O)cc2O)c1-c1nc2c(n1C)CCN(CC(C)C)C2 [Example 24, 5-(2,4-dihydroxyl-5-isopropylphenyl)-N-ethyl-4-(5-isobutyl-1-methyl-4,5,6,7-tetrahydro-1H-imidazo[4,5-c]pyridin-2-yl)isoxazole-3-carboxamide] | 20 to 100 nM | – | 20 to 100 nM
CCNC(=O)c1noc(-c2cc(C(C)C)c(O)cc2O)c1-c1ccc2c(c1)CCN(C)CC2 [Example 25, 5-(2,4-dihydroxyl-5-isopropylphenyl)-N-ethyl-4-(3-methyl-2,3,4,5-tetrahydro-1H-benzo[d]azepin-7-yl)isoxazole-3-carboxamide] | 20 to 100 nM | – | < 20 nM
CCNC(=O)c1noc(-c2cc(C(C)C)c(O)cc2O)c1-c1ccc2c(c1)CCCN(C)C2 [Example 26, 5-(2,4-dihydroxyl-5-isopropylphenyl)-N-ethyl-4-(2-methyl-2,3,4,5-tetrahydro-1H-benzo[c]azepin-7-yl)isoxazole-3-carboxamide] | 20 to 100 nM | – | < 20 nM
CCNC(=O)c1onc(-c2cc(C(C)C)c(O)cc2O)c1-c1ccc2c(c1)CCN(C)CC2 [Example 27, 3-(2,4-dihydroxyl-5-isopropylphenyl)-N-ethyl-4-(3-methyl-2,3,4,5-tetrahydro-1H-benzo[d]azepin-7-yl)isoxazole-5-carboxamide] | < 20 nM | – | < 20 nM

From US10035792B2, “Resorcinol derivative as HSP90 inhibitor” (priority 2015, dated 2018)
